Values of other authors as cited in US5122376A, “Calcitonin gene related peptide” (ISF Societa per Azioni, priority 1989, dated 1992).

Details: compared with sodium caprate

- absorption-enhancing agent for insulin (nasal absorption): weaker than sodium caprate
SMILES: CC1(C)[C@@H](O)CC[C@]2(C)[C@H]3C(=O)C=C4[C@@H]5C[C@@](C)(C(=O)[O-])CC[C@]5(C)CC[C@@]4(C)[C@]3(C)CC[C@@H]12.[Na+] [sodium glycyrrhetinate]
